Data from ChEMBL document CHEMBL1201862, “PubChem BioAssay data set” (2004).
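Where inhibition never reached the appropriate level, the endpoint shown equals the highest concentration tested. Otherwise, values were interpolated linearly from a five-concentration, 48-hour dose response in 96-well plates. Here, GI50 denotes the concentration required for 50% inhibition of growth.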 The source made the active and inactive calls. No stated cut-off is given here; in the data, active = GI50 up to about 1.1 µM and inactive = higher.

Tests used:
Assay in all cases: inhibition of tumour cell growth, NCI panel, 48 h
[1] = system: SK-MEL-28
[2] = system: XF498
[3] = system: TK-10
[4] = system: MOLT-4
[5] = system: SNB-19
[6] = system: HCT-116
[7] = system: NCI-H460
[8] = system: UACC-62
[9] = system: Malme-3M
[10] = system: CCRF-CEM
[11] = system: RPMI-8226
[12] = system: LOX IMVI
[13] = system: CAKI-1
[14] = system: K562
[15] = system: KM12
[16] = system: NCI-H522
[17] = system: MDA-MB-231
[18] = system: MDA-N
[19] = system: DU-145
[20] = system: PC-3

Measured: GI50

NC1CCCCC1.O=C(O)C(CP(=O)(O)O)=C(Cl)Cl
inactive: [1] > 100 µM | [2] > 100 µM | [3] > 100 µM | [4] > 100 µM | [5] > 100 µM | [6] > 100 µM | [7] > 100 µM | [8] > 100 µM | [9] > 100 µM | [10] > 100 µM | [11] > 100 µM | [12] > 100 µM

CN(CCc1ccccn1)c1nc(=[N+](C)C)ss1
inactive: [13] > 100 µM | [1] > 100 µM | [2] > 100 µM | [3] > 100 µM | [4] > 100 µM | [5] > 100 µM | [14] > 100 µM | [15] 28.1 µM | [7] 46.3 µM | [8] 64.1 µM | [9] > 100 µM | [10] 81.3 µM | [16] 8.02 µM | [11] > 100 µM | [12] > 100 µM

COC(=O)/C(C#N)=C1\CCC(O)N1 (configuration not stated)
inactive: [13] > 100 µM | [1] > 100 µM | [2] > 100 µM | [3] > 100 µM | [4] > 100 µM | [5] > 100 µM | [14] > 100 µM | [15] > 100 µM | [6] > 100 µM | [7] > 100 µM | [8] > 100 µM | [9] > 100 µM | [10] > 100 µM | [16] > 100 µM | [11] > 100 µM | [12] > 100 µM

CCNC(=O)/C(=C/c1ccc(OC)cc1)c1cc(OC)c(OC)c(OC)c1
inactive: [13] 6.03 µM | [1] 5.79 µM | [2] 17.3 µM | [3] 20.5 µM | [4] 7.35 µM | [17] 6.41 µM | [5] 12.5 µM | [14] 3.19 µM | [15] 4.23 µM | [18] 1.58 µM | [6] 6.18 µM | [7] 5.31 µM | [8] 3.8 µM | [19] 13.3 µM | [9] 5.53 µM | [10] 6.79 µM | [16] 4.92 µM | [11] 14 µM | [12] 8.39 µM | [20] 3.52 µM

Cc1c(C(=O)C/C(=N\O)C(=O)Nc2cc(Cl)c(Cl)cc2Cl)[n+]([O-])c2ccccc2[n+]1[O-]
inactive: [13] 34 µM | [1] 22.4 µM | [2] 25.9 µM | [3] 29.2 µM | [4] 13.3 µM | [5] 36.1 µM | [14] 25.9 µM | [15] 11.1 µM | [6] 4.85 µM | [7] 12.8 µM | [8] 4.57 µM | [9] 9.14 µM | [10] 32.7 µM | [16] 3.96 µM | [11] 9.33 µM | [12] 6.65 µM

CC/N=C(/C#N)NCC
inactive: [13] > 100 µM | [1] > 100 µM | [2] > 100 µM | [3] > 100 µM | [4] > 100 µM | [5] > 100 µM | [14] > 100 µM | [15] > 100 µM | [6] > 100 µM | [7] > 100 µM | [8] > 100 µM | [9] > 100 µM | [10] 75.2 µM | [16] > 100 µM | [11] 30.4 µM | [12] > 100 µM

O=C(NC(=S)Nc1ccccc1)c1ccc([N+](=O)[O-])cc1
inactive: [13] 73.8 µM | [1] > 100 µM | [2] > 100 µM | [3] > 100 µM | [4] 71.8 µM | [14] 52 µM | [15] 3.46 µM | [6] > 100 µM | [7] 37.1 µM | [8] 75.7 µM | [9] > 100 µM | [10] 31.3 µM | [16] 18.3 µM | [11] 28.6 µM | [12] 84.1 µM

N=c1c2ccccc2sc2nc3ccccc3n12
inactive: [13] 48.6 µM | [1] > 100 µM | [2] 85.1 µM | [3] > 100 µM | [4] > 100 µM | [5] > 100 µM | [14] > 100 µM | [15] > 100 µM | [7] > 100 µM | [8] > 100 µM | [9] > 100 µM | [10] > 100 µM | [16] 71.3 µM | [12] > 100 µM

C/C(=N/NC(N)=S)C(CN(C)C)C(C1=C(O)c2ccccc2OC1)c1ccccc1 (configuration not stated)
inactive: [13] > 100 µM | [1] > 100 µM | [2] > 100 µM | [3] > 100 µM | [4] > 100 µM | [5] > 100 µM | [14] > 100 µM | [15] > 100 µM | [6] > 100 µM | [7] > 100 µM | [8] > 100 µM | [9] > 100 µM | [10] > 100 µM | [16] > 100 µM | [11] > 100 µM | [12] > 100 µM

CCCCCCCCCCCC(=O)CC(=O)c1c(O)cccc1O
inactive: [13] > 10 µM | [1] 21.4 µM | [2] 18.5 µM | [3] 24.9 µM | [4] 19.7 µM | [5] 20 µM | [14] 26.9 µM | [15] 17.5 µM | [6] 16.6 µM | [7] 19 µM | [8] 29.4 µM | [9] 15.5 µM | [10] > 100 µM | [16] 22.2 µM | [11] 19.6 µM | [12] 17.4 µM

COc1ccc(N2C(=O)C3c4[nH]c5ccc(OC)cc5c4C4CCC(C(C)(C)C)CC4C3C2=O)cc1 (configuration not stated)
inactive: [13] 42.6 µM | [1] 23.2 µM | [2] 56.2 µM | [3] 33.3 µM | [4] 28.6 µM | [5] 46.3 µM | [14] 23.1 µM | [15] 34.3 µM | [6] 10.5 µM | [7] 16.6 µM | [8] 27.2 µM | [9] 7.03 µM | [10] 58.6 µM | [16] 20.7 µM | [11] 57.1 µM | [12] 34.2 µM

O=C(O)C1CCC(=O)N1C(=O)C(Cl)c1ccccc1 (configuration not stated)
inactive: [13] > 100 µM | [1] > 100 µM | [2] > 100 µM | [3] > 100 µM | [4] > 100 µM | [5] > 100 µM | [14] > 100 µM | [15] > 100 µM | [6] > 100 µM | [7] > 100 µM | [8] > 100 µM | [9] > 100 µM | [10] > 100 µM | [16] > 100 µM | [11] > 100 µM | [12] > 100 µM

OCCSCC/C(=N\N=C(/CCSCCO)c1ccccc1)c1ccccc1
inactive: [13] 32.1 µM | [1] > 100 µM | [2] 69.2 µM | [3] > 100 µM | [4] 77.4 µM | [5] > 100 µM | [14] 29.9 µM | [15] 66.8 µM | [7] 69.5 µM | [8] > 100 µM | [9] > 100 µM | [10] 44.9 µM | [11] 39.4 µM | [12] 93.8 µM

C=CCN1C(=O)C(=O)N(CC=C)C(=O)C1=O
inactive: [13] > 100 µM | [2] > 100 µM | [3] > 100 µM | [4] > 100 µM | [5] > 100 µM | [14] > 100 µM | [15] > 100 µM | [6] > 100 µM | [7] > 100 µM | [8] > 100 µM | [9] > 100 µM | [10] > 100 µM | [16] > 100 µM | [11] > 100 µM | [12] > 100 µM
